Target: PI3Kα (alpha) (Homo sapiens (Human), UniProt P42336)
Test: p110α (alpha) PI3K Binding Assay (ADP-Glo lipid kinase reaction)
Type: biochemical
Settings: PI3K alpha 0.2 nM, ATP 40 μM, PIP2:3PS 50 μM, 120 min, room temperature; Ki by Morrison Equation; read-out: PI3Kα-(alpha) ATP (Ki) micromolar
Procedure, shortened: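 Enzyme with PIP2:3PS lipid substrate and ATP/MgCl2 in 50 mM HEPES, 50 mM NaCl, 3 mM MgCl2, 0.01% BSA, 1% DMSO, 120 min at room temperature. ADP formed detected by ADP-Glo luminescence. Ki from 10-point dose-response curves via the Morrison equation.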

PI3Kα (alpha), sequence (P42336 whole entry): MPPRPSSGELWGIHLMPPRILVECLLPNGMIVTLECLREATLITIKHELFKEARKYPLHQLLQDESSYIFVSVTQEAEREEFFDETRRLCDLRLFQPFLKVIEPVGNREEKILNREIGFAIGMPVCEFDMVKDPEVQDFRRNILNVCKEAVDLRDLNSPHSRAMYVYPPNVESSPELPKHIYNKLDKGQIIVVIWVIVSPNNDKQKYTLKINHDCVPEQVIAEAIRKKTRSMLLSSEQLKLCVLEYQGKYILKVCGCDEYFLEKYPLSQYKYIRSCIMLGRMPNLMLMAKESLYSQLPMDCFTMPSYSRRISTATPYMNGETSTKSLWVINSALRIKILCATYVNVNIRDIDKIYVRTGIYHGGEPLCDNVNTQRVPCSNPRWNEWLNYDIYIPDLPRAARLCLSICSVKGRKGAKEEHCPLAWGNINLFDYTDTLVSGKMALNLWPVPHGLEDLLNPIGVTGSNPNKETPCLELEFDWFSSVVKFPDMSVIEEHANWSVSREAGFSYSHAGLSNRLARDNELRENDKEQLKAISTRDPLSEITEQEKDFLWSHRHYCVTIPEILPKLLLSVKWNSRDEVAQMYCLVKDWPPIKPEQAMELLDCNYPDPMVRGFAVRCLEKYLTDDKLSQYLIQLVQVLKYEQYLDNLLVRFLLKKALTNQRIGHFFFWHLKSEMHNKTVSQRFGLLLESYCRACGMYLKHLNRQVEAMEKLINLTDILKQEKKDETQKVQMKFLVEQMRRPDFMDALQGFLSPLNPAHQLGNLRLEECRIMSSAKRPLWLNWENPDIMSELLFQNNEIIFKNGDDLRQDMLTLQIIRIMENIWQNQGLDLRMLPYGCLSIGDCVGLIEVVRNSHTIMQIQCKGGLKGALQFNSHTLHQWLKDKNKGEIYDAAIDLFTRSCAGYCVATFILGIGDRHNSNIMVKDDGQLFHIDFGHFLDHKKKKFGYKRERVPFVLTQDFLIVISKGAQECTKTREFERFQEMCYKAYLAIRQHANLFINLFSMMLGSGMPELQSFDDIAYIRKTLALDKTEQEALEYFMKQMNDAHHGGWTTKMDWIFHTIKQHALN
PI3Kα (alpha), sequence (P27986 whole entry partner): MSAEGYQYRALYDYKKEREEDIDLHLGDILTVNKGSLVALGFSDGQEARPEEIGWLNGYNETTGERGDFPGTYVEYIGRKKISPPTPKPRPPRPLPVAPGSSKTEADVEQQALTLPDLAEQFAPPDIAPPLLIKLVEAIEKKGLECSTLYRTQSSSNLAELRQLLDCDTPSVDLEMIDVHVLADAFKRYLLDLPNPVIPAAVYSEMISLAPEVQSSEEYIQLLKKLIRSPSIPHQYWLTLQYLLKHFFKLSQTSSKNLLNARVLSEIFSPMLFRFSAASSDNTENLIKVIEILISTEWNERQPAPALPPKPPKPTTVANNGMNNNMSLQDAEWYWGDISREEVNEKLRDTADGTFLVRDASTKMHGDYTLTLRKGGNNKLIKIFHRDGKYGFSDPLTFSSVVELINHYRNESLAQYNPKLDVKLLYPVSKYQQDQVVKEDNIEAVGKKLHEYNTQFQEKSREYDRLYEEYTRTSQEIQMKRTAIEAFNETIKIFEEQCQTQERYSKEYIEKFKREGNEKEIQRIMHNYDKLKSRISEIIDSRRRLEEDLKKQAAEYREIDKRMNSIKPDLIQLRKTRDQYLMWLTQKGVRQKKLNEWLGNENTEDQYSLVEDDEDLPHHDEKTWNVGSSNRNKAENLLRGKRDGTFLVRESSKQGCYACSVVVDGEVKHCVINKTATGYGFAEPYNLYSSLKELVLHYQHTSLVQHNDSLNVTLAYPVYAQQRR

Ki	SMILES
0.095 nM	NC(=O)[C@@H](Nc1cc2c3c(c1)nc(-c1cc(Cl)c4oc(N)nc4c1)n3CCCO2)C1CC1 [Example 209, (S)-2-((1-(2-Amino-7-chlorobenzo[d]oxazol-5-yl)-8,9-dihydro-7H-6-oxa-2,9a-diazabenzo[cd]azulen-4-yl)amino)-2-cyclopropylacetamide]
285 nM	NC(=O)[C@@H](Nc1cc2c3c(c1)nc(-c1cnn(C4COC4)c1)n3CCCO2)C1CC1 [Example 210, (S)-2-Cyclopropyl-2-((1-(1-(oxetan-3-yl)-1H-pyrazol-4-yl)-8,9-dihydro-7H-6-oxa-2,9a-diazabenzo[cd]azulen-4-yl)amino)acetamide]
815 nM	NC(=O)[C@@H](Nc1cc2c3c(c1)nc(-c1cnn(CCO)c1)n3CCCO2)C1CC1 [Example 211, (S)-2-Cyclopropyl-2-((1-(1-(2-hydroxyethyl)-1H-pyrazol-4-yl)-8,9-dihydro-7H-6-oxa-2,9a-diazabenzo[cd]azulen-4-yl)amino)acetamide]
148 nM	NC(=O)[C@@H](Nc1cc2c3c(c1)nc(-c1cn[nH]c1)n3CCCO2)C1CC1 [Example 212, (S)-2-((1-(1H-Pyrazol-4-yl)-8,9-dihydro-7H-6-oxa-2,9a-diazabenzo[cd]azulen-4-yl)amino)-2-cyclopropylacetamide]
23.8 nM	COc1ccc(-n2nc3cc(N[C@H](C(N)=O)C4CC4)cc4c3c2CCCO4)cn1 [Example 213, (S)-2-Cyclopropyl-2-((1-(6-methoxypyridin-3-yl)-1,7,8,9-tetrahydrooxepino[4,3,2-cd]indazol-4-yl)amino)acetamide]
< 0.02 nM	NC(=O)[C@@H](Nc1cc2c3c(c1)nc(-c1ccc4nc(N)sc4c1)n3CCCCO2)C1CC1 [Example 214, (S)-2-((1-(2-Aminobenzo[d]thiazol-6-yl)-7,8,9,10-tetrahydro-6-oxa-2,10a-diazacycloocta[cd]inden-4-yl)amino)-2-cyclopropylacetamide]
0.424 nM	NC(=O)[C@@H](Nc1cc2c3c(c1)nc(-c1cc(F)c4nccnc4c1)n3CCCO2)C1CC1 [Example 215, (S)-2-Cyclopropyl-2-((1-(8-fluoroquinoxalin-6-yl)-8,9-dihydro-7H-6-oxa-2,9a-diazabenzo[cd]azulen-4-yl)amino)acetamide]
0.214 nM	CC[C@H](C(N)=O)n1cc(-c2cc3c4c(c2)nc(-c2ccc5oc(N)nc5c2)n4CCCO3)cn1 [Example 216, (R)-2-(4-(1-(2-Aminobenzo[d]oxazol-5-yl)-8,9-dihydro-7H-6-oxa-2,9a-diazabenzo[cd]azulen-4-yl)-1H-pyrazol-1-yl)butanamide]
0.298 nM	CC[C@@H](C(N)=O)n1cc(-c2cc3c4c(c2)nc(-c2ccc5oc(N)nc5c2)n4CCCO3)cn1 [Example 217, (S)-2-(4-(1-(2-Aminobenzo[d]oxazol-5-yl)-8,9-dihydro-7H-6-oxa-2,9a-diazabenzo[cd]azulen-4-yl)-1H-pyrazol-1-yl)butanamide]
0.143 nM	C[C@H](C(N)=O)n1cc(-c2cc3c4c(c2)nc(-c2ccc5oc(N)nc5c2)n4CCCO3)cn1 [Example 218, (R)-2-(4-(1-(2-Aminobenzo[d]oxazol-5-yl)-8,9-dihydro-7H-6-oxa-2,9a-diazabenzo[cd]azulen-4-yl)-1H-pyrazol-1-yl)propanamide]
0.242 nM	C[C@@H](C(N)=O)n1cc(-c2cc3c4c(c2)nc(-c2ccc5oc(N)nc5c2)n4CCCO3)cn1 [Example 219, (S)-2-(4-(1-(2-Aminobenzo[d]oxazol-5-yl)-8,9-dihydro-7H-6-oxa-2,9a-diazabenzo[cd]azulen-4-yl)-1H-pyrazol-1-yl)propanamide]
2.92 nM	NC(=O)[C@@H]1CCCN1c1cc2c3c(c1)nc(-c1ccc4c(c1)N1CCC(=O)N=C1O4)n3CCCO2 [Example 220, (S)-1-(1-(2-Oxo-3,4-dihydro-2H-benzo[4,5]oxazolo[3,2-a]pyrimidin-7-yl)-8,9-dihydro-7H-6-oxa-2,9a-diazabenzo[cd]azulen-4-yl)pyrrolidine-2-carboxamide]
0.237 nM	NC(=O)[C@@H]1CCCN1c1cc2c3c(c1)nc(-c1ccc(-c4nc[nH]n4)cc1)n3CCCO2 [Example 221, (S)-1-(1-(4-(1H-1,2,4-Triazol-3-yl)phenyl)-8,9-dihydro-7H-6-oxa-2,9a-diazabenzo[cd]azulen-4-yl)pyrrolidine-2-carboxamide]
0.261 nM	NC(=O)[C@@H]1CCCN1c1cc2c3c(c1)nc(-c1ccc(-c4nc[nH]n4)c(Cl)c1)n3CCCO2 [Example 222, (S)-1-(1-(3-Chloro-4-(1H-1,2,4-triazol-3-yl)phenyl)-8,9-dihydro-7H-6-oxa-2,9a-diazabenzo[cd]azulen-4-yl)pyrrolidine-2-carb oxamide]
74.6 nM	NC(=O)[C@@H]1CCCN1c1cc2c3c(c1)nc(-c1ccc(-c4cn[nH]c4)nc1)n3CCCO2 [Example 223, (S)-1-(1-(6-(1H-Pyrazol-4-yl)pyridin-3-yl)-8,9-dihydro-7H-6-oxa-2,9a-diazabenzo[cd]azulen-4-yl)pyrrolidine-2-carboxamide]
1.62 nM	CCc1cc(-c2nc3cc(N4CCC[C@H]4C(N)=O)cc4c3n2CCCO4)cc2nc(N)oc12 [Example 224, (S)-1-(1-(2-Amino-7-ethylbenzo[d]oxazol-5-yl)-8,9-dihydro-7H-6-oxa-2,9a-diazabenzo[cd]azulen-4-yl)pyrrolidine-2-carb oxamide]
0.431 nM	CCc1cc(-c2nc3cc(N[C@H](C(N)=O)C4CC4)cc4c3n2CCCO4)cc2nc(N)oc12 [Example 225, (S)-2-((1-(2-Amino-7-ethylbenzo[d]oxazol-5-yl)-8,9-dihydro-7H-6-oxa-2,9a-diazabenzo[cd]azulen-4-yl)amino)-2-cyclopropylacetamide]
0.393 nM	NC(=O)[C@@H]1CCCN1c1cc2c3c(c1)nc(-c1ccc(-c4nc[nH]n4)cn1)n3CCCO2 [Example 226, (S)-1-(1-(5-(1H-1,2,4-Triazol-3-yl)pyridin-2-yl)-8,9-dihydro-7H-6-oxa-2,9a-diazabenzo[cd]azulen-4-yl)pyrrolidine-2-carb oxamide]
8.21 nM	NC(=O)[C@@H]1CCCN1c1cc2c3c(c1)nc(-c1ccc(-c4ncsn4)cc1)n3CCCO2 [Example 227, (S)-1-(1-(4-(1,2,4-Thiadiazol-3-yl)phenyl)-8,9-dihydro-7H-6-oxa-2,9a-diazabenzo[cd]azulen-4-yl)pyrrolidine-2-carboxamide]
2.66 nM	NC(=O)[C@@H](Nc1cc2c3c(c1)nc(-c1ccn4nccc4n1)n3CCCO2)C1CC1 [Example 228, (S)-2-Cyclopropyl-2-((1-(pyrazolo[1,5-a]pyrimidin-5-yl)-8,9-dihydro-7H-6-oxa-2,9a-diazabenzo[cd]azulen-4-yl)amino)acetamide]
6.88 nM	NC(=O)[C@@H]1CCCN1c1cc2c3c(c1)nc(-c1ccc(-c4cc[nH]n4)cc1)n3CCCO2 [Example 229, (S)-1-(1-(4-(1H-Pyrazol-3-yl)phenyl)-8,9-dihydro-7H-6-oxa-2,9a-diazabenzo[cd]azulen-4-yl)pyrrolidine-2-carboxamide]
83.7 nM	NC(=O)[C@@H]1CCCN1c1cc2c3c(c1)nc(-c1ccc(N4CCNC4=O)cc1)n3CCCO2 [Example 234, (S)-1-(1-(4-(2-Oxoimidazolidin-1-yl)phenyl)-8,9-dihydro-7H-6-oxa-2,9a-diazabenzo[cd]azulen-4-yl)pyrrolidine-2-carboxamide]
0.209 nM	NC(=O)[C@@H](Nc1cc2c3c(c1)nc(-c1cc(C(F)(F)F)c4oc(N)nc4c1)n3CCCO2)C1CC1 [Example 235, (S)-2-((1-(2-Amino-7-(trifluoromethyl)benzo[d]oxazol-5-yl)-8,9-dihydro-7H-6-oxa-2,9a-diazabenzo[cd]azulen-4-yl)amino)-2-cyclopropylacetamide]
21 nM	COc1ccc(CNC(=O)[C@@H]2CCCN2c2cc3c4c(c2)nc(-c2ccc5oc(N)nc5c2)n4CCCO3)cc1 [Example 236, (S)-1-(1-(2-Aminobenzo[d]oxazol-5-yl)-8,9-dihydro-7H-6-oxa-2,9a-diazabenzo[cd]azulen-4-yl)-N-(4-methoxybenzyl)pyrrolidine-2-carb oxamide]
137 nM	NC(=O)[C@@H]1CCCN1c1cc2c3c(c1)nc(-c1ccc4c(=O)[nH]oc4c1)n3CCCO2 [Example 237, (S)-1-(1-(3-Oxo-2,3-dihydrobenzo[d]isoxazol-6-yl)-8,9-dihydro-7H-6-oxa-2,9a-diazabenzo[cd]azulen-4-yl)pyrrolidine-2-carb oxamide]
0.045 nM	C[C@@H]1Cn2c(-c3ccc4oc(N)nc4c3)nc3cc(N[C@H](C(N)=O)C4CC4)cc(c32)O1 [Example 238, (S)-2-(((R)-2-(2-Aminobenzo[d]oxazol-5-yl)-4-methyl-3,4-dihydro-5-oxa-1,2a-diazaacenaphthylen-7-yl)amino)-2-cyclopropylacetamide]
1.61 nM	C[C@H](Oc1cc2c3c(nc(-c4ccc5oc(N)nc5c4)n3CCCO2)c1F)C(N)=O [Example 240, (S)-2-((1-(2-Aminobenzo[d]oxazol-5-yl)-3-fluoro-8,9-dihydro-7H-6-oxa-2,9a-diazabenzo[cd]azulen-4-yl)oxy)propanamide]
< 0.02 nM	C[C@H](Oc1cc2c3c(c1)nc(-c1ccc4oc(N)nc4c1F)n3CCCCO2)C(N)=O [Example 241, (S)-2-((1-(2-Amino-4-fluorobenzo[d]oxazol-5-yl)-7,8,9,10-tetrahydro-6-oxa-2,10a-diazacycloocta[cd]inden-4-yl)oxy)propanamide]
< 0.02 nM	C[C@H](Oc1cc2c3c(c1)nc(-c1cc(F)c4nc(N)sc4c1)n3CCCCO2)C(N)=O [Example 242, (S)-2-((1-(2-Amino-4-fluorobenzo[d]thiazol-6-yl)-7,8,9,10-tetrahydro-6-oxa-2,10a-diazacycloocta[cd]inden-4-yl)oxy)propanamide]
< 0.02 nM	C[C@H](Oc1cc2c3c(c1)nc(-c1ccc(-c4nc[nH]n4)cc1)n3CCCCO2)C(N)=O [Example 243, (S)-2-((1-(4-(1H-1,2,4-Triazol-3-yl)phenyl)-7,8,9,10-tetrahydro-6-oxa-2,10a-diazacycloocta[cd]inden-4-yl)oxy)propanamide]
